Results: the supplement of paper PMC10307832

Assays:
Test in all cases: relative viability (nuclei count vs DMSO), 5 days (fraction); higher = more cells survive
AZD6482 + Decitabine = compound: Cc1cc([C@@H](C)Nc2ccccc2C(=O)O)c2nc(N3CCOCC3)cc(=O)n2c1 [AZD6482] + Nc1ncn([C@H]2C[C@H](O)[C@@H](CO)O2)c(=O)n1 [Decitabine] (partner 2 µM)
Procedure, shortened: (§1)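 Lung cancer cell lines in 1536-well plates got either a single drug or a fixed anchor-drug dose together with five library-drug doses (not always all listed) in √10 steps, by pin tool, on the day after seeding. Nuclei were counted after 5 days, and relative viability is the treated-to-vehicle ratio of nuclei counts. Values are medians of duplicate plates.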

AZD6482 + Tozasertib = compound: Cc1cc([C@@H](C)Nc2ccccc2C(=O)O)c2nc(N3CCOCC3)cc(=O)n2c1 [AZD6482] + Cc1cc(Nc2cc(N3CCN(C)CC3)nc(Sc3ccc(NC(=O)C4CC4)cc3)n2)n[nH]1 [Tozasertib] (partner 0.1 µM)
Procedure, shortened: as §1

[1] = compound: COc1cc2nc(N3CCCN(C)CC3)nc(NC3CCN(Cc4ccccc4)CC3)c2cc1OC + O=C(c1cc(Cc2n[nH]c(=O)c3ccccc23)ccc1F)N1CCN(C(=O)C2CC2)CC1 [Olaparib] (partner 8 µM)
Procedure, shortened: as §1

[2] = compound: COc1cc2nc(N3CCCN(C)CC3)nc(NC3CCN(Cc4ccccc4)CC3)c2cc1OC + CS(=O)(=O)CCNCc1ccc(-c2ccc3ncnc(Nc4ccc(OCc5cccc(F)c5)c(Cl)c4)c3c2)o1 [Lapatinib] (partner 2 µM)
Procedure, shortened: as §1

Cell Line | relative viability (AZD6482 + Decitabine; first compound 0.08 µM) | relative viability (AZD6482 + Decitabine; first compound 0.253 µM) | relative viability (AZD6482 + Decitabine; first compound 0.8 µM) | relative viability (AZD6482 + Decitabine; first compound 2.53 µM) | relative viability (AZD6482 + Decitabine; first compound 8 µM) | relative viability (AZD6482 + Tozasertib; first compound 0.08 µM) | relative viability (AZD6482 + Tozasertib; first compound 0.253 µM) | relative viability (AZD6482 + Tozasertib; first compound 0.8 µM) | relative viability (AZD6482 + Tozasertib; first compound 2.53 µM) | relative viability (AZD6482 + Tozasertib; first compound 8 µM) | relative viability ([1]; first compound 0.2 µM) | relative viability ([1]; first compound 0.6325 µM) | relative viability ([1]; first compound 2 µM) | relative viability ([1]; first compound 6.325 µM) | relative viability ([2]; first compound 0.2 µM) | relative viability ([2]; first compound 0.6325 µM) | relative viability ([2]; first compound 2 µM) | relative viability ([2]; first compound 6.325 µM)
EKVX | 0.334 | 0.278 | 0.312 | 0.266 | 0.244 | 0.337 | 0.296 | 0.344 | 0.362 | 0.202 | 0.838 | 0.873 | 0.808 | 0.776 | 0.194 | 0.218 | 0.232 | 0.223
EMC-BAC-2 | 0.938 | 0.956 | 0.994 | 0.778 | 0.908 | 0.285 | 0.288 | 0.274 | 0.287 | 0.272 | 0.494 | 0.406 | 0.438 | 0.511 | 0.908 | 0.881 | 0.914 | 0.891
EPLC-272H | 0.313 | 0.325 | 0.321 | 0.216 | 0.341 | 0.185 | 0.111 | 0.211 | 0.277 | 0.157 | 0.738 | 0.888 | 0.767 | 0.329 | 0.947 | 1.1 | 1.03 | 0.938
H3255 | 0.474 | 0.531 | 0.539 | 0.388 | 0.472 | 0.607 | 0.595 | 0.42 | 0.442 | 0.594 | 0.592 | 0.552 | 0.541 | 0.562 | 0.235 | 0.273 | 0.258 | 0.165
